What was measured:
Experiment in all cases: Test E preemergence
Format in all cases: in vivo
Conditions in all cases: scale 0 to 100
[1] = tested on: Brazilian crabgrass (Digitaria horizontalis)
How it was run: (§1)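 Visual ratings from 0 = no effect to 100 = complete control, scored against untreated controls after 14 to 21 days in the greenhouse. Compounds, in a non-phytotoxic solvent mix with surfactant, went onto silt loam soil right after sowing (preemergence) or onto 2–18 cm plants at the 1- to 4-leaf stage (postemergence).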

[2] = tested on: Italian ryegrass (Lolium multiflorum)
How it was run: as §1

[3] = tested on: Surinam grass (Brachiaria decumbens)
How it was run: as §1

[4] = tested on: arrowleaf sida (Sida rhombifolia)
How it was run: as §1

[5] = tested on: barnyardgrass (Echinochloa crus-galli)
How it was run: as §1

[6] = tested on: corn (Zea mays)
How it was run: as §1

[7] = tested on: dayflower (Virginia (VA) dayflower, Commelina virginica)
How it was run: as §1

[8] = tested on: fall panicum (Panicum dichotomiflorum)
How it was run: as §1

[9] = tested on: field bindweed (Convolvulus arvensis)
How it was run: as §1

[10] = tested on: giant foxtail (Setaria faberii)
How it was run: as §1

[11] = tested on: goosegrass (Eleusine indica)
How it was run: as §1

[12] = tested on: green foxtail (Setaria viridis)
How it was run: as §1

[13] = tested on: hairy beggarticks (Bidens pilosa)
How it was run: as §1

[14] = tested on: lambsquarters (Chenopodium album)
How it was run: as §1

[15] = tested on: morningglory (Ipomoea coccinea)
How it was run: as §1

[16] = tested on: nightshade (eastern black nightshade, Solanum ptycanthum)
How it was run: as §1

[17] = tested on: palmer pigweed (Amaranthus palmeri)
How it was run: as §1

[18] = tested on: sandbur (southern sandbur, Cenchrus echinatus)
How it was run: as §1

[19] = tested on: soybean (Glycine max)
How it was run: as §1

[20] = tested on: waterhemp (common waterhemp, Amaranthus rudis)
How it was run: as §1

[21] = tested on: yellow nutsedge (Cyperus esculentus)
How it was run: as §1

SMILES: Fc1cccc(Oc2ncc(C(F)(F)F)cn2)c1Oc1ncc(Cl)cn1 [Compound 42, 5-chloro-2-[2-fluoro-6-[[5-(trifluoromethyl)-2-pyrimidinyl]oxy]phenoxy]pyrimidine]
- Plant response rating, Crabgrass, Brazil ([1]; 16 g ai/ha): 35
- Plant response rating, Crabgrass, Brazil ([1]; 31 g ai/ha): 95
- Plant response rating, Crabgrass, Brazil ([1]; 62 g ai/ha): 100
- Plant response rating, Crabgrass, Brazil ([1]; 125 g ai/ha): 100
- Plant response rating, Ryegrass, Italian ([2]; 16 g ai/ha): 20
- Plant response rating, Ryegrass, Italian ([2]; 31 g ai/ha): 40
- Plant response rating, Ryegrass, Italian ([2]; 62 g ai/ha): 80
- Plant response rating, Ryegrass, Italian ([2]; 125 g ai/ha): 98
- Plant response rating, Surinam Grass ([3]; 16 g ai/ha): 0
- Plant response rating, Surinam Grass ([3]; 31 g ai/ha): 0
- Plant response rating, Surinam Grass ([3]; 62 g ai/ha): 40
- Plant response rating, Surinam Grass ([3]; 125 g ai/ha): 85
- Plant response rating, Arrowleaf Sida ([4]; 16 g ai/ha): 100
- Plant response rating, Arrowleaf Sida ([4]; 31 g ai/ha): 98
- Plant response rating, Arrowleaf Sida ([4]; 62 g ai/ha): 100
- Plant response rating, Arrowleaf Sida ([4]; 125 g ai/ha): 100
- Plant response rating, Barnyardgrass ([5]; 16 g ai/ha): 5
- Plant response rating, Barnyardgrass ([5]; 31 g ai/ha): 50
- Plant response rating, Barnyardgrass ([5]; 62 g ai/ha): 70
- Plant response rating, Barnyardgrass ([5]; 125 g ai/ha): 100
- Plant response rating, Corn ([6]; 16 g ai/ha): 0
- Plant response rating, Corn ([6]; 31 g ai/ha): 0
- Plant response rating, Corn ([6]; 62 g ai/ha): 35
- Plant response rating, Corn ([6]; 125 g ai/ha): 65
- Plant response rating, Dayflower, VA ([7]; 16 g ai/ha): 0
- Plant response rating, Dayflower, VA ([7]; 31 g ai/ha): 20
- Plant response rating, Dayflower, VA ([7]; 62 g ai/ha): 90
- Plant response rating, Dayflower, VA ([7]; 125 g ai/ha): 95
- Plant response rating, Panicum, Fall ([8]; 16 g ai/ha): 0
- Plant response rating, Panicum, Fall ([8]; 31 g ai/ha): 98
- Plant response rating, Panicum, Fall ([8]; 62 g ai/ha): 100
- Plant response rating, Panicum, Fall ([8]; 125 g ai/ha): 100
- Plant response rating, Field Bindweed ([9]; 16 g ai/ha): 25
- Plant response rating, Field Bindweed ([9]; 31 g ai/ha): 20
- Plant response rating, Field Bindweed ([9]; 62 g ai/ha): 40
- Plant response rating, Field Bindweed ([9]; 125 g ai/ha): 85
- Plant response rating, Foxtail, Giant ([10]; 16 g ai/ha): 50
- Plant response rating, Foxtail, Giant ([10]; 31 g ai/ha): 80
- Plant response rating, Foxtail, Giant ([10]; 62 g ai/ha): 100
- Plant response rating, Foxtail, Giant ([10]; 125 g ai/ha): 100
- Plant response rating, Goosegrass ([11]; 16 g ai/ha): 0
- Plant response rating, Goosegrass ([11]; 31 g ai/ha): 50
- Plant response rating, Goosegrass ([11]; 62 g ai/ha): 90
- Plant response rating, Goosegrass ([11]; 125 g ai/ha): 98
- Plant response rating, Foxtail, Green ([12]; 16 g ai/ha): 35
- Plant response rating, Foxtail, Green ([12]; 31 g ai/ha): 80
- Plant response rating, Foxtail, Green ([12]; 62 g ai/ha): 95
- Plant response rating, Foxtail, Green ([12]; 125 g ai/ha): 100
- Plant response rating, Beggarticks ([13]; 16 g ai/ha): 0
- Plant response rating, Beggarticks ([13]; 31 g ai/ha): 0
- Plant response rating, Beggarticks ([13]; 62 g ai/ha): 0
- Plant response rating, Beggarticks ([13]; 125 g ai/ha): 0
- Plant response rating, Lambsquarters ([14]; 16 g ai/ha): 100
- Plant response rating, Lambsquarters ([14]; 31 g ai/ha): 100
- Plant response rating, Lambsquarters ([14]; 62 g ai/ha): 100
- Plant response rating, Lambsquarters ([14]; 125 g ai/ha): 100
- Plant response rating, Morningglory ([15]; 16 g ai/ha): 0
- Plant response rating, Morningglory ([15]; 31 g ai/ha): 35
- Plant response rating, Morningglory ([15]; 62 g ai/ha): 70
- Plant response rating, Morningglory ([15]; 125 g ai/ha): 95
- Plant response rating, Nightshade ([16]; 16 g ai/ha): 80
- Plant response rating, Nightshade ([16]; 31 g ai/ha): 70
- Plant response rating, Nightshade ([16]; 62 g ai/ha): 98
- Plant response rating, Nightshade ([16]; 125 g ai/ha): 98
- Plant response rating, Pigweed, Palmer ([17]; 16 g ai/ha): 60
- Plant response rating, Pigweed, Palmer ([17]; 31 g ai/ha): 70
- Plant response rating, Pigweed, Palmer ([17]; 62 g ai/ha): 80
- Plant response rating, Pigweed, Palmer ([17]; 125 g ai/ha): 100
- Plant response rating, Sandbur ([18]; 16 g ai/ha): 0
- Plant response rating, Sandbur ([18]; 31 g ai/ha): 5
- Plant response rating, Sandbur ([18]; 62 g ai/ha): 35
- Plant response rating, Sandbur ([18]; 125 g ai/ha): 65
- Plant response rating, Soybean ([19]; 16 g ai/ha): 0
- Plant response rating, Soybean ([19]; 31 g ai/ha): 35
- Plant response rating, Soybean ([19]; 62 g ai/ha): 35
- Plant response rating, Soybean ([19]; 125 g ai/ha): 100
- Plant response rating, Waterhemp ([20]; 16 g ai/ha): 98
- Plant response rating, Waterhemp ([20]; 31 g ai/ha): 100
- Plant response rating, Waterhemp ([20]; 62 g ai/ha): 100
- Plant response rating, Waterhemp ([20]; 125 g ai/ha): 100
- Plant response rating, Nutsedge, Yellow ([21]; 16 g ai/ha): 0
- Plant response rating, Nutsedge, Yellow ([21]; 31 g ai/ha): 0
- Plant response rating, Nutsedge, Yellow ([21]; 62 g ai/ha): 35
- Plant response rating, Nutsedge, Yellow ([21]; 125 g ai/ha): 40

— patent US20170190671A1, “BIS(ARYL)CATECHOL DERIVATIVES AS HERBICIDES” (E I DU PONT DE NEMOURS AND COMPANY, priority 2014, published 2017)
